The target in assay [1] is Cyclin-dependent kinase 13 (Homo sapiens, UniProt Q14004).
In assay [2] the target is T1, Glycogen phosphorylase, brain form (Homo sapiens, UniProt P11216).
T1 sequence (P11216 whole entry): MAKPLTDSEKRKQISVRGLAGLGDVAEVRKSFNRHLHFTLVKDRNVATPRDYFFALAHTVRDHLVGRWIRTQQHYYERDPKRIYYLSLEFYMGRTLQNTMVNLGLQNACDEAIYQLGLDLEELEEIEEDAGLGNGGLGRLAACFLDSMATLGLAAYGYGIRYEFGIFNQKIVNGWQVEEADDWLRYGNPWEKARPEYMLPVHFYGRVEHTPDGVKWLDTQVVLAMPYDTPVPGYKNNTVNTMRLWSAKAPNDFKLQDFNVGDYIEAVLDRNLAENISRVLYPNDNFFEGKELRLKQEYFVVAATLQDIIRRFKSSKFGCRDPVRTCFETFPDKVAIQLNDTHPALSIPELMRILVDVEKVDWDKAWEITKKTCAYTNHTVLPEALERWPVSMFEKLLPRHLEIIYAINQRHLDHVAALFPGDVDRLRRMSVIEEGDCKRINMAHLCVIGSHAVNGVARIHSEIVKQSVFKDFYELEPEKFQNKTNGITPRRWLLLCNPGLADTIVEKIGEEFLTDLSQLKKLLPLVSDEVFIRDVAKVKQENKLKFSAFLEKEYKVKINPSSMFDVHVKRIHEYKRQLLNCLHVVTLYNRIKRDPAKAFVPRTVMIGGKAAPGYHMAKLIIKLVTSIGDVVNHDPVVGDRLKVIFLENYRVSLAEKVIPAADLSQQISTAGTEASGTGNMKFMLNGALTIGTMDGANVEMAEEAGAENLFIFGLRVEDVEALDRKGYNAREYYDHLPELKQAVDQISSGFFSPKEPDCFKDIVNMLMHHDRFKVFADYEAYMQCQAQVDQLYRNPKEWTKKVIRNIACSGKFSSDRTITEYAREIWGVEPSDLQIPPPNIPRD

The target in assay [3] is T2, Mitogen-activated protein kinase kinase kinase 5 (Homo sapiens, UniProt Q99683).
T2 sequence (Q99683 whole entry): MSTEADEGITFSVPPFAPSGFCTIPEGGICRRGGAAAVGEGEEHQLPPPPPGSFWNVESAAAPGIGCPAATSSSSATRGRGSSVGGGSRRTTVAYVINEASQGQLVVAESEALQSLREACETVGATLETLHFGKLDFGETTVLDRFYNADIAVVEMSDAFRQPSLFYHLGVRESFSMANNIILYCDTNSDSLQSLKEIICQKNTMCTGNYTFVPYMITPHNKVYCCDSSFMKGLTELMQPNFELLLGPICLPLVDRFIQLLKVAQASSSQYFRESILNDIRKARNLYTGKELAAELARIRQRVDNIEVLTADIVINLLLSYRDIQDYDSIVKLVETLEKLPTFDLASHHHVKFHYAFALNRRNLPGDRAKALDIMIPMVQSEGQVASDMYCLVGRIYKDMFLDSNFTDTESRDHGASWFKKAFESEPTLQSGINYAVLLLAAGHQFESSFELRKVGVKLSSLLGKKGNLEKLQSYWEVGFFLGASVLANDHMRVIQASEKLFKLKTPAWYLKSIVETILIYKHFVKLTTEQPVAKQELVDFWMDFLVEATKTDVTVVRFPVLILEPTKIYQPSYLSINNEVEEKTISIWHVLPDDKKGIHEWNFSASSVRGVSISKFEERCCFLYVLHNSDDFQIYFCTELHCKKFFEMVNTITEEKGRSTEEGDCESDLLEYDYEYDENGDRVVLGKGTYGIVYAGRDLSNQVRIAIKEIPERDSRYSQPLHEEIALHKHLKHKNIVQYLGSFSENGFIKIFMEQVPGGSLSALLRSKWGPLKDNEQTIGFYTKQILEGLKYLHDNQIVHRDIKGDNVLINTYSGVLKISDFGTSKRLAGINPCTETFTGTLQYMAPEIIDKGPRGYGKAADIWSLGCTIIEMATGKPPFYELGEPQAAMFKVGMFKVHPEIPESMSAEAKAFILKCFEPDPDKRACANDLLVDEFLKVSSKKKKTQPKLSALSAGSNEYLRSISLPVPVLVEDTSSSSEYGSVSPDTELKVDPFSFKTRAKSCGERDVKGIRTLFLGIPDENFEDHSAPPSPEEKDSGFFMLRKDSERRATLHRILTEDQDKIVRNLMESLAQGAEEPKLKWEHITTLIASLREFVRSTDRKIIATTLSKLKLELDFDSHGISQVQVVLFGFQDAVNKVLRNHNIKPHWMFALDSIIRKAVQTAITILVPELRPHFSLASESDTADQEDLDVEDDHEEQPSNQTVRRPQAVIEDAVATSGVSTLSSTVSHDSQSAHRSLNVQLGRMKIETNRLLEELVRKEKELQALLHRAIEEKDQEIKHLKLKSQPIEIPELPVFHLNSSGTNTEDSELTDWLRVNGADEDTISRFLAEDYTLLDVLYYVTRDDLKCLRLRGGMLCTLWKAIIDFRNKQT

Assay [4] has as its target Tyrosine-protein kinase HCK (Homo sapiens, UniProt P08631).
The target of assay [5] is Mitogen-activated protein kinase kinase kinase 20 (Homo sapiens, UniProt Q9NYL2).
In assay [6] the target is Receptor-interacting serine/threonine-protein kinase 3 (Homo sapiens, UniProt Q9Y572).

The source made the active and inactive calls. Rule as the data show it, for most assays here: actives have a measured Kd and inactives only a lower limit. A value given as a limit tells only on which side of the number the result lay.

In general, Kd refers to the equilibrium constant for the complex coming apart.
Also: in the data inactive means no Kd found up to 30 µM.

Chain of Receptor-interacting serine/threonine-protein kinase 3 (Q9Y572 whole entry): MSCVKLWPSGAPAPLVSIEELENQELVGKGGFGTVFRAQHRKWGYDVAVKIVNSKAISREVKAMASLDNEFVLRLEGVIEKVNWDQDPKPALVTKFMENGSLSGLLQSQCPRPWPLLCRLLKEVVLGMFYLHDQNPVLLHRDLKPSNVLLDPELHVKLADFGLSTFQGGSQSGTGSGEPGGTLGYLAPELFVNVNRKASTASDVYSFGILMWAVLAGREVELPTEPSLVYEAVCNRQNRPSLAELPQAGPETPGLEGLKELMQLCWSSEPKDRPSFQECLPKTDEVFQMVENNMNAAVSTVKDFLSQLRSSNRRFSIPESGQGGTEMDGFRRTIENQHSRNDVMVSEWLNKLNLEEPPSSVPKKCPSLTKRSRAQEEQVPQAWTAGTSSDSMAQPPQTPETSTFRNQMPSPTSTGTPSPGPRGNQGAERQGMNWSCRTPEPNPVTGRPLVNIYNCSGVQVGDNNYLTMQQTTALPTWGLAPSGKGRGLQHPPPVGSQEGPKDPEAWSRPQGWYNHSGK
Chain of Tyrosine-protein kinase HCK (P08631 whole entry): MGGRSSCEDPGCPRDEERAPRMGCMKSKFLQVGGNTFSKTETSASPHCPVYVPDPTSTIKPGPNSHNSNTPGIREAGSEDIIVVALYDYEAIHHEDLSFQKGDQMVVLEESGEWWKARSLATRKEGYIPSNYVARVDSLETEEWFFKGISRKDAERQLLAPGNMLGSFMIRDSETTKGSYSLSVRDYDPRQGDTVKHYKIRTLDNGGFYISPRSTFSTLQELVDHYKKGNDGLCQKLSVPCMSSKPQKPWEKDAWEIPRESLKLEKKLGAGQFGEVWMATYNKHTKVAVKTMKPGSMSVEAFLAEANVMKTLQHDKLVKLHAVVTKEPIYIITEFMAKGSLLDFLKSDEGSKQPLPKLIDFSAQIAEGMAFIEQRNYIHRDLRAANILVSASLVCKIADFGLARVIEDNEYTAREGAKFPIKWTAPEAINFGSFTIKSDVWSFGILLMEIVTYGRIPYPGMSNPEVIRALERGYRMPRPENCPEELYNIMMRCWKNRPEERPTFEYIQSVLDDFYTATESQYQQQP
Chain of Cyclin-dependent kinase 13 (Q14004 whole entry): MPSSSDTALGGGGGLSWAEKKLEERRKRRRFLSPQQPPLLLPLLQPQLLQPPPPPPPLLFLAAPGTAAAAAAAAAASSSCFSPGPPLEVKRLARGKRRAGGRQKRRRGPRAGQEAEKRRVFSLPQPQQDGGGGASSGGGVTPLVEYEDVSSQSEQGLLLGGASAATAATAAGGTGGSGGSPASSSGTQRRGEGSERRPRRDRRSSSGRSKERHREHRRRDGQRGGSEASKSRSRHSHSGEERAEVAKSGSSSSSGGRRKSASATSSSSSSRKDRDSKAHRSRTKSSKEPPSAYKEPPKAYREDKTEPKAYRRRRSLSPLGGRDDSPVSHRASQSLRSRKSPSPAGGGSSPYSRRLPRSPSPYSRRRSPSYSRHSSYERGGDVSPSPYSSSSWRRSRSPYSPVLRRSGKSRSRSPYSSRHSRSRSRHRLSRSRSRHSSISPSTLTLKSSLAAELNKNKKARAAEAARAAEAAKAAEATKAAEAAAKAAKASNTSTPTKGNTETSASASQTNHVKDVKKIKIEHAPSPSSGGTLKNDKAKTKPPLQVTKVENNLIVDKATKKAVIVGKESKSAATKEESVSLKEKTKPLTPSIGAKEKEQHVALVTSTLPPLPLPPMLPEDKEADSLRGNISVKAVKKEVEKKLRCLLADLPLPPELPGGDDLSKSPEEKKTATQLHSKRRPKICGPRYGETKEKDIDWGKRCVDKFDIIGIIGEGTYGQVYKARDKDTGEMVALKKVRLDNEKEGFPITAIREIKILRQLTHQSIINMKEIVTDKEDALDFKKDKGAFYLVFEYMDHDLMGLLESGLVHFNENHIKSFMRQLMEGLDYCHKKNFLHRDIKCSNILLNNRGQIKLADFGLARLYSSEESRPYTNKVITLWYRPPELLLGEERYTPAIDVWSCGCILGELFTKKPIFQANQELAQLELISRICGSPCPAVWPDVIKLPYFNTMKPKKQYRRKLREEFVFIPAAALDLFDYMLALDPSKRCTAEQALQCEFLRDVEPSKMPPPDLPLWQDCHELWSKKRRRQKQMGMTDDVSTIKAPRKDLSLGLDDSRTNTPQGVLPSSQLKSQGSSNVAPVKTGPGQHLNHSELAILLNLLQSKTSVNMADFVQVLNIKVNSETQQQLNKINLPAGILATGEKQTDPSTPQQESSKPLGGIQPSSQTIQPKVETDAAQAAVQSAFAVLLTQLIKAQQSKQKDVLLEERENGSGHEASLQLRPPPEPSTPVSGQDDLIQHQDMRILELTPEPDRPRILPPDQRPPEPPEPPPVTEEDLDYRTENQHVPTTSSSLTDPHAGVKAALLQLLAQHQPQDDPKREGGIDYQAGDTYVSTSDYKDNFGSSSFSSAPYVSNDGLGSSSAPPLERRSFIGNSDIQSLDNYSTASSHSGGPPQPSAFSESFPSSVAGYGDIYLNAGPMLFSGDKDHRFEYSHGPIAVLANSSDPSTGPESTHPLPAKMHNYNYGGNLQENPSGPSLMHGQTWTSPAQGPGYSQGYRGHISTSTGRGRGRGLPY
Chain of Mitogen-activated protein kinase kinase kinase 20 (Q9NYL2 whole entry): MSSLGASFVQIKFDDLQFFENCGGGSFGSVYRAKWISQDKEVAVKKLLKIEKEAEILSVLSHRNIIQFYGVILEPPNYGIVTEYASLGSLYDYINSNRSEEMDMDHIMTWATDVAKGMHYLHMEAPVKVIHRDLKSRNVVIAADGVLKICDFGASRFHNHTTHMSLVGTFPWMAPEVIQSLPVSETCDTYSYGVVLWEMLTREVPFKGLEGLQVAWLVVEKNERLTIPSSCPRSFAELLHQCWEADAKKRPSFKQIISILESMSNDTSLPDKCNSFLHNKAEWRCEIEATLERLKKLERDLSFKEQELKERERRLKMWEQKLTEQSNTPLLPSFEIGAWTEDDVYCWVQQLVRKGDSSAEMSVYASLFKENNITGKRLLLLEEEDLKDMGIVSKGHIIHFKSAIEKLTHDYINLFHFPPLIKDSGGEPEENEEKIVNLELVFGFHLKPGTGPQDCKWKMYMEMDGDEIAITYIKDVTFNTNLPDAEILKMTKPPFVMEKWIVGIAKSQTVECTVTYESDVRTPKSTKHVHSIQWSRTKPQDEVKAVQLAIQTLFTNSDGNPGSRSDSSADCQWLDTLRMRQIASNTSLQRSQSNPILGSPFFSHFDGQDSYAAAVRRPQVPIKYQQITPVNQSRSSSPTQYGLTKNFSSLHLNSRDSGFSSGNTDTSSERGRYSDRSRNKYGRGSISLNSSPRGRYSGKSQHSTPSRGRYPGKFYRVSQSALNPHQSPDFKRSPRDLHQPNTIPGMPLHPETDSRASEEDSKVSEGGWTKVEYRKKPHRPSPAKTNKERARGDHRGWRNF

As to `C=CC(=O)N1CCC(Oc2cc3c(Nc4ccc(Cl)c(Cl)c4F)ncnc3cc2OC)CC1` [POZIOTINIB], the Kd in assay [1] is > 30 µM (inactive); in assay [2] it was > 30 µM (inactive); in assay [3], > 30 µM (inactive); in assay [4], > 30 µM (inactive); in assay [5] it was > 30 µM (inactive); in assay [6], 0.392 µM (active).

As for `Cn1cc(-c2ccc3nnc(C(F)(F)c4ccc5ncccc5c4)n3n2)cn1` [JNJ-38877605], the Kd in assay [1], in assay [2], in assay [3], in assay [4], in assay [5] and in assay [6] was > 30 µM (inactive) throughout.

With `Cc1ccc(-n2nc(C(C)(C)C)cc2NC(=O)NCc2cc(F)ccc2Oc2ccc3c(cnn3CCO)c2)cc1` [PEXMETINIB], the Kd in assay [1] is > 30 µM (inactive); in assay [2] it was > 30 µM (inactive); in assay [3] it was > 30 µM (inactive); in assay [4], > 30 µM (inactive); in assay [5], 1.25 µM (active); in assay [6] it was 0.662 µM (active).

With `Cc1c(F)cc(C(=O)NC2CC2)cc1-c1ccc(C(=O)NCC(C)(C)C)cn1` [LOSMAPIMOD], the Kd in assay [1], in assay [2], in assay [3], in assay [4], in assay [5] and in assay [6] was > 30 µM (inactive) each time.

Turning to `COc1cc(N2CCC(N3CCN(C)CC3)CC2)ccc1Nc1ncnc(Nc2ccccc2S(=O)(=O)C(C)C)n1` [ASP-3026], the Kd in assay [1] is > 30 µM (inactive); in assay [2], > 30 µM (inactive); in assay [3], > 30 µM (inactive); in assay [4], 1.25 µM (active); in assay [5], > 30 µM (inactive); in assay [6], > 30 µM (inactive).

For the compound `CNC(=O)c1ccc(-c2cnc3ncc(Cc4ccc5ncccc5c4)n3n2)cc1F` [CAPMATINIB], the Kd in assay [1], in assay [2], in assay [3], in assay [4], in assay [5] and in assay [6] was > 30 µM (inactive) throughout.

On to `CNC(=O)c1ccc(C)c(-n2c(C)cc(OCc3ccc(F)cc3F)c(Br)c2=O)c1` [PH-797804], for which the Kd in assay [1], in assay [2], in assay [3], in assay [4], in assay [5] and in assay [6] was > 30 µM (inactive) each time.

Consider `C[C@@H](Nc1cc(F)cc(F)c1)c1cc(C(=O)N(C)C)cc2c(=O)cc(N3CCOCC3)oc12` [AZD-8186], for which the Kd in assay [1], in assay [2], in assay [3], in assay [4], in assay [5] and in assay [6] was > 30 µM (inactive) each time.

As to `C[C@@H](c1ccc2nccn2c1)n1nnc2ncc(-c3cnn(C)c3)nc21` [SAVOLITINIB], the Kd in assay [1], in assay [2], in assay [3], in assay [4], in assay [5] and in assay [6] was > 30 µM (inactive) throughout.

Consider `CN1CCC(COc2cnc(-c3cccc(Cn4nc(-c5cccc(C#N)c5)ccc4=O)c3)nc2)CC1` [TEPOTINIB], for which the Kd in assay [1], in assay [2], in assay [3], in assay [4], in assay [5] and in assay [6] was > 30 µM (inactive) in each case.

Consider `CCc1cnn2c(NCc3ccc[n+]([O-])c3)cc(N3CCCC[C@H]3CCO)nc12` [DINACICLIB], for which the Kd in assay [1] was 0.021 µM (active); in assay [2], > 30 µM (inactive); in assay [3] it was > 30 µM (inactive); in assay [4] it was > 30 µM (inactive); in assay [5], > 30 µM (inactive); in assay [6], > 30 µM (inactive).

The values above are taken from ChEMBL document CHEMBL3991601, “The target landscape of clinical kinase drugs” (Science, 2017).
